Reference: patent US9890185B2, “Urea derivatives useful as kinase inhibitors” (Respivert Limited, priority 2013, dated 2018)
pIC50: −log10 of the molar value.

Tests used:
[1] = target: Syk (Homo sapiens (Human), UniProt P43405); test: Syk enzyme inhibition (FRET, Z-LYTE); assay type: biochemical
Protocol: (§1) The enzyme inhibitory activities of compounds disclosed herein are determined by FRET using synthetic peptides labelled with both donor and acceptor fluorophores (Z-LYTE, Invitrogen Ltd., Paisley, UK).
(§2) The inhibitory activities of compounds of the invention against c-Src and Syk enzymes (Invitrogen), are evaluated in a similar fashion to that described hereinabove. The relevant enzyme (3000 ng/mL or 2000 ng/mL respectively, 2.5 μL) is incubated with the test compound (either 4 μg/mL, 0.4 μg/mL, 0.04 μg/mL, or 0.004 μg/mL, 2.5 μL each) for 2 hr at RT. The FRET peptides (8 μM, 2.5 μL), and appropriate ATP solutions (2.5 μL, 800 μM for c-Src, and 60 μM ATP for Syk) are then added to the enzymes/compound mixtures and incubated for 1 hr. Development reagent (protease, 5 μL) is added for 1 hr prior to detection in a fluorescence microplate reader (Varioskan® Flash, ThermoFisher Scientific).
(§3) In all cases, the site-specific protease cleaves non-phosphorylated peptide only and eliminates the FRET signal. Phosphorylation levels of each reaction are calculated using the ratio of coumarin emission (donor) over fluorescein emission (acceptor), for which high ratios indicate high phosphorylation and low ratios indicate low phosphorylation levels. The percentage inhibition of each reaction is calculated relative to non-inhibited control and the 50% inhibitory concentration (IC50 value) is then calculated from the concentration-response curve.

[2] = target: GSK 3α (Homo sapiens (Human), UniProt P49840); test: GSK 3α enzyme inhibition (FRET, Z-LYTE, Method 2); assay type: biochemical; details: read-out: IC50 Values for Enzyme Inhibition, GSK3α
Outline: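 Human GSK3α (500 ng/mL) preincubated with compound (4, 0.4, 0.04 or 0.004 μg/mL) at RT for 2 h (Method 1) or 105 min (Method 2). Then FRET peptide (8 μM) and ATP (40 μM) added for 1 h, followed by protease development for 1 h. IC50 from the coumarin/fluorescein emission ratio relative to uninhibited control.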

[3] = system: PBMCs; test: LPS-induced IL-8 release in PBMC cells (assay b); assay type: cell-based, human; details: Homo sapiens, PBMC; LPS-stimulated PBMCs; read-out: IC50 Values for Inhibition of Cytokine Release, PBMCs IL-8
Outline: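 Cytokines (TNFα, IL-8) in supernatants were quantified by sandwich ELISA after a 24 h challenge with 1 ng/mL E. coli LPS at 37° C, 5% CO2. Healthy-donor PBMCs had been exposed to compound for 2 h beforehand. IC50 values were fitted from the concentration-response curves.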

[4] = system: PBMCs; test: IFN gamma release in CD3/CD28 stimulated PBMC cells (assay c); assay type: cell-based; details: Homo sapiens, read-out: IC50 Values for Inhibition of Cytokine Release, PBMCs IFNγ
Protocol: (§4) PBMCs from healthy subjects are separated from whole blood using a density gradient (Lymphoprep, Axis-Shield Healthcare). Cells are added to a 96 well plate pre-coated with a mixture of CD3/CD28 monoclonal antibodies (0.3 μg/mL eBioscience and 3 μg/mL BD Pharmingen respectively). Compound at the desired concentration is then added to the wells and the plate left for 3 days under normal tissue culture conditions. Supernatants are harvested and IL-2 and IFN gamma release determined by Sandwich ELISA (Duo-set, R&D System). The IC50 is determined from the dose response curve.

[5] = target: c-Src (Homo sapiens (Human), UniProt P12931); test: c-Src enzyme inhibition (FRET, Z-LYTE); assay type: biochemical
Protocol: as §1, §2, §3

[6] = system: PBMCs; test: Cell mitosis assay in PBMCs (assay g); assay type: cell-based; details: Homo sapiens, PBMC, test compound 5 μg/mL
Protocol: Peripheral blood mononucleocytes (PBMCs) from healthy subjects are separated from whole blood (Quintiles, London, UK) using a density gradient (Histopaque®-1077, Sigma-Aldrich, Poole, UK). The PBMCs (3 million cells per sample) are subsequently treated with 2% PHA (phytohaemagglutinin, Sigma-Aldrich, Poole, UK) for 48 hr, followed by a 20 hr exposure to varying concentrations of test compounds. At 2 hr before collection, PBMCs are treated with demecolcine (0.1 μg/mL; Invitrogen, Paisley, UK) to arrest cells in metaphase. To observe mitotic cells, PBMCs are permeabilised and fixed by adding Intraprep (50 μL; Beckman Coulter, France), and stained with anti-phospho-histone 3 (0.26 ng/L; #9701; Cell Signalling, Danvers, Mass.) and propidium iodide (1 mg/mL; Sigma-Aldrich, Poole, UK) as previously described (Muehlbauer P. A. and Schuler M. J., Mutation Research, 2003, 537:117-130). Fluorescence is observed using an ATTUNE flow cytometer (Invitrogen, Paisley, UK), gating for lymphocytes. The percentage inhibition of mitosis is calculated for each treatment relative to vehicle (0.5% DMSO) treatment.

[7] = system: d-U937 cells; test: Accumulation of β catenin in d-U937 cells (assay m); assay type: cell-based, human; details: percentage relative to Reference Compound at 1 μg/mL
Protocol: U937 cells, a human monocytic cell line, are differentiated into macrophage-type cells by incubation with PMA; (100 ng/mL) for between 48 to 72 hr. The cells are then incubated with either final concentrations of test compound or vehicle for 18 hr. The induction of β-catenin by the test compounds is stopped by replacing the media with 4% formaldehyde solution. Endogenous peroxide activity is neutralised by incubating with quenching buffer (100 μL, 0.1% sodium azide, 1% H2O2 in PBS with 0.05% Tween-20) for 20 min. The cells are washed with washing buffer (200 μL; PBS containing 0.05% Tween-20) and incubated with blocking solution (200 μL; 5% milk in PBS) for 1 hr, re-washed with washing buffer (200 μL) and then incubated overnight with anti-β-catenin antibody solution (50 μL) in 1% BSA/PBS (BD, Oxford, UK).
After washing with washing buffer (3×200 μL; PBS containing 0.05% Tween-20), cells are incubated with an HRP-conjugated secondary antibody solution (100 μL) in 1% BSA/PBS (Dako, Cambridge, UK) and the resultant signal is determined colourimetrically (OD: 450 nm with a reference wavelength of 655 nm) using TMB substrate (50 μL; R&D Systems, Abingdon, UK). This reaction is stopped by addition of 1N H2SO4 solution (50 μL). Cells are then washed with washing buffer and 2% crystal violet solution (50 μL) is applied for 30 min. After washing with washing buffer (3×200 μL), 1% SDS (100 μL) is added to each well and the plates are shaken lightly for 1 hr prior to measuring the absorbance at 595 nm (Varioskan® Flash, Thermo-Fisher Scientific).
The measured OD450-655 readings are corrected for cell number by dividing the OD450-655 by the OD595 readings.

[8] = target: p38 MAPKα isoform (MAPK14) (Homo sapiens (Human), UniProt Q16539); test: p38 MAPKα enzyme inhibition (FRET, Z-LYTE, Method 2); assay type: biochemical
Protocol: as §1
The following two assay variants can be used for determination of p38 MAPKα inhibition.
The inhibitory activities of test compounds against the p38 MAPKα isoform (MAPK14: Invitrogen), are evaluated indirectly by determining the level of activation/phosphorylation of the down-stream molecule, MAPKAP-K2. The p38 MAPKα protein (80 ng/mL, 2.5 μL) is mixed with the test compound (2.5 μL of either 4 μg/mL, 0.4 μg/mL, 0.04 μg/mL or 0.004 μg/mL) for 2 hr at RT. […] The mixture is incubated for 1 hr at RT. Development reagent (protease, 5 μL) is added for 1 hr prior to detection in a fluorescence microplate reader (Varioskan® Flash, ThermoFisher Scientific).
This method follows the same steps as Method 1 above, but utilises a higher concentration of the p38 MAPKα protein (2.5 μL of 200 ng/mL protein instead of 2.5 μL of 80 ng/mL protein) for mixing with the test compound.
as §3

[9] = system: PBMCs; test: IL-2 release in CD3/CD28 stimulated PBMC cells (assay c); assay type: cell-based; details: Homo sapiens, read-out: IC50 Values for Inhibition of Cytokine Release, PBMCs IL-2
Protocol: as §4

p38 MAPKα isoform (MAPK14), sequence (Q16539 whole entry, canonical isoform): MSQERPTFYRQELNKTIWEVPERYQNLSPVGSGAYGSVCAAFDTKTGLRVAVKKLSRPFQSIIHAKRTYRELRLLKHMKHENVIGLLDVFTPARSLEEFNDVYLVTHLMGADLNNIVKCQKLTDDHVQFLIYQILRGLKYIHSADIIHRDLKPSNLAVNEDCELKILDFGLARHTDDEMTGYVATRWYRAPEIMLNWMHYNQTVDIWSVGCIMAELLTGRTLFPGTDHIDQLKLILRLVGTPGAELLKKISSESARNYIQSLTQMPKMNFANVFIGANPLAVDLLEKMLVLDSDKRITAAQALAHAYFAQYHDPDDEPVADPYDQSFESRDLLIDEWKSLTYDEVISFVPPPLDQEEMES
c-Src, sequence (P12931 whole entry, looked up): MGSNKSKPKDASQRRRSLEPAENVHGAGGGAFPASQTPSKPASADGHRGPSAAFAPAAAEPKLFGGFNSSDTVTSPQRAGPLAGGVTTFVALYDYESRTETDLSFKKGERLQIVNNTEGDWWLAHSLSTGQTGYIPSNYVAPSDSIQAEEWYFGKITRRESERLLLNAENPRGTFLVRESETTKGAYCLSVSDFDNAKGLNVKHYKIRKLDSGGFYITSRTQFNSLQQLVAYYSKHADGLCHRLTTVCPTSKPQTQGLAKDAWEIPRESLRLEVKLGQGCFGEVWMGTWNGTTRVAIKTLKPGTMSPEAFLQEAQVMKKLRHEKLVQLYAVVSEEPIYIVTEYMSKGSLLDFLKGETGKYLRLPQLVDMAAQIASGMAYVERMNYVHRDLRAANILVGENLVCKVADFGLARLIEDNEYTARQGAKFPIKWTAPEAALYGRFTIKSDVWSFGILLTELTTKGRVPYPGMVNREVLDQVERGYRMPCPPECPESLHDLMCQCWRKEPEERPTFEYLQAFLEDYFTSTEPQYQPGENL
GSK 3α, sequence (P49840 whole entry): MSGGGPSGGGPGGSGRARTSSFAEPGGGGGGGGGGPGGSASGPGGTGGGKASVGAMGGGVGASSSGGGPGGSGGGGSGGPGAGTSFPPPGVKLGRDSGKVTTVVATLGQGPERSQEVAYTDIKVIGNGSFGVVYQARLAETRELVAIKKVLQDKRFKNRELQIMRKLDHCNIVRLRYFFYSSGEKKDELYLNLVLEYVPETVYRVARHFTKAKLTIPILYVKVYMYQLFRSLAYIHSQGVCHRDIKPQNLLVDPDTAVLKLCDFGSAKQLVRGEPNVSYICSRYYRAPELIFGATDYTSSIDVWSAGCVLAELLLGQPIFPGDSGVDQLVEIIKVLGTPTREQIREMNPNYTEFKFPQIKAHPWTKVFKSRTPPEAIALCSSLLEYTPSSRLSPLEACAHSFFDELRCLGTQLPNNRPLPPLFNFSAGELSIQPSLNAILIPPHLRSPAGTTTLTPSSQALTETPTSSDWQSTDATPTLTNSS

Row | SMILES | pIC50 [1] | pIC50 [2] | pIC50 [5] | pIC50 [8] | pIC50 [3] | pIC50 [4] | inhibition at 5 µg/mL [6] | % β-catenin induction ([7]; test compound 1 μg/mL) | % β-catenin induction ([7]; test compound 5 μg/mL) | % β-catenin induction ([7]; test compound 10 μg/mL) | pIC50 [9]
1 | COc1c(CC(N)=O)cc(C(C)(C)C)cc1NC(=O)Nc1ccc(Oc2ccnc(Nc3cc(OCCN4CCOCC4)cc(C(F)(F)F)c3)c2)c2ccccc12 [38(w), 2-(5-(tert-Butyl)-2-methoxy-3-(3-(4-((2-((3-(2-morpholinoethoxy)-5-(trifluoromethyl)-phenyl)amino)pyridin-4-yl)oxy)naphthalen-1-yl)ureido)phenyl)acetamide] |  | < 4.90 |  |  | 8.40 |  | 23.9% |  |  |  | 
2 | COc1c(NC(=O)Nc2ccc(Oc3ccnc(Nc4cc(OCCN5CCOCC5)cc(C(F)(F)F)c4)c3)c3ccccc23)cc(C(C)(C)C)cc1[S+](C)[O-] (stereo not drawn) [38(x), 1-(5-(tert-Butyl)-2-methoxy-3-(methylsulfinyl)phenyl)-3-(4-((2-((3-(2-morpholinoethoxy)-5-(trifluoromethyl)phenyl)amino)pyridin-4-yl)oxy)naphthalen-1-yl)urea] |  | < 4.90 |  |  | 8.39 |  | 35% |  |  |  | 
3 | COc1cc(Nc2cc(Oc3ccc(NC(=O)Nc4cc(C(C)(C)C)cc(S(C)(=O)=O)c4OC)c4ccccc34)ccn2)ccc1C(=O)O [Example 80, 4-((4-((4-(3-(5-(tert-Butyl)-2-methoxy-3-(methylsulfonyl)phenyl)ureido)naphthalen-1-yl)oxy)pyridin-2-yl)amino)-2-methoxybenzoic acid] |  |  |  |  | 8.35 | 8.18 |  |  |  |  | 6.38

Now from value to compound, other results behind:

Row | pIC50 [1] | pIC50 [2] | pIC50 [5] | pIC50 [8] | SMILES | pIC50 [3] | pIC50 [4] | inhibition at 5 µg/mL [6] | % β-catenin induction ([7]; test compound 1 μg/mL) | % β-catenin induction ([7]; test compound 5 μg/mL) | % β-catenin induction ([7]; test compound 10 μg/mL) | pIC50 [9]
4 | < 5.79 | 5.46 | 6.68 |  | COc1c(NC(=O)Nc2ccc(Oc3ccnc(Nc4cnccn4)n3)c3ccccc23)cc(C(C)(C)C)cc1P(C)(C)=O [15(q), 1-(5-(tert-butyl)-3-(dimethylphosphoryl)-2-methoxyphenyl)-3-(4-((2-(pyrazin-2-ylamino)pyrimidin-4-yl)oxy)naphthalen-1-yl)urea] | 8.21 | 5.79 | 12.9% | 5.0% | 9.5% | 2.5% | 
5 | 6.86 | 4.95 | 7.36 | 6.64 | COc1cc(Nc2cc(Oc3ccc(NC(=O)Nc4cc(C(C)(C)C)cc(P(C)(C)=O)c4OC)c4ccccc34)ccn2)cc(OC)c1 [Example 27, 1-(5-(tert-Butyl)-3-(dimethylphosphoryl)-2-methoxyphenyl)-3-(4-((2-((3,5-dimethoxyphenyl)-amino)pyridin-4-yl)oxy)naphthalen-1-yl)urea] | 9.00 |  | 52% | 5.7% | 13.0% | 13.3% | 
6 | 6.91 | 5.26 | 7.62 | 7.51 | COCCOCCOCCOc1cc(Nc2cc(Oc3ccc(NC(=O)Nc4cc(C(C)(C)C)cc(CP(C)(C)=O)c4OC)c4ccccc34)ccn2)cc(OC)c1 [Example 29, 1-(5-(tert-Butyl)-3-((dimethylphosphoryl)methyl)-2-methoxyphenyl)-3-(4-((2-((3-methoxy-5-(2-(2-(2-methoxyethoxy)ethoxy)ethoxy)phenyl)amino)pyridin-4-yl)oxy)naphthalen-1-yl)urea] | 9.10 |  | 49.4% | 6.5% | 9.0% | 45.0% | 
7 | 6.64 | 5.80 | 7.37 | 7.25 | COc1cncc(Nc2cc(Oc3ccc(NC(=O)Nc4cc(C(C)(C)C)cc(P(C)(C)=O)c4OC)c4ccccc34)ccn2)c1 [Example 34, 1-(5-(tert-Butyl)-3-(dimethylphosphoryl)-2-methoxyphenyl)-3-(4-((2-((5-methoxypyridin-3-yl)amino)pyridin-4-yl)oxy)naphthalen-1-yl)urea] | 8.92 |  | 81.1% | 2.0% | 28.5% | 23.0% | 
8 | 7.27 | 5.97 | 7.57 | 7.51 | COc1c(NC(=O)Nc2ccc(Oc3ccnc(Nc4ccn(C)n4)c3)c3ccccc23)cc(C(C)(C)C)cc1P(C)(C)=O [Example 36, 1-(5-(tert-Butyl)-3-(dimethylphosphoryl)-2-methoxyphenyl)-3-(4-((2-((1-methyl-1H-pyrazol-3-yl)amino)pyridin-4-yl)oxy)naphthalen-1-yl)urea] | 8.96 |  | 86.6% | 17.5% | 84.5% | 27.5% | 
